In US10150739B2, “Crystalline form of androgen receptor inhibitor and preparation method thereof” (priority 2015, dated 2018):
Where two headings read alike, the source gives them in different places.

Experiments:
[1] = format: physicochemical
[2] = format: physicochemical; remark: listed apart in the source
Procedure: Samplings were carried out on Day 5 and Day 10.

[3] = format: physicochemical; details: for Crystal form / Purity: 25° C., RH 60%
Procedure: The sample was placed under conditions of 25° C., RH 60% for a long period of time, and regular sampling was carried out to determine the purity.

[4] = format: physicochemical; remark: listed apart in the source
Procedure: (§1) The compound of formula (I) (0.5 g, 1.04 mmol) (prepared according to Example 1) and the compound of formula (I) (0.5 g, 1.04 mmol) (prepared according to Example 11) were added to a 25 mL one-necked flask, followed by addition of 4.0 mL of ethyl acetate-isopropyl ether (v:v=1:1). The mixture was pulped at room temperature, then filtered and dried to obtain a solid (872 mg, yield: 87.2%).
as §1, with “12)” for “11)”, “(850” for “(872”, “85.0%).” for “87.2%).”

[5] = system: AIPC; details: mouse; cited from earlier work
[6] = system: AIPC; details: human; cited from earlier work
[7] = biological target: hERG (Homo sapiens, UniProt Q12809); details: cited from earlier work
Sequence of hERG (Q12809 whole entry): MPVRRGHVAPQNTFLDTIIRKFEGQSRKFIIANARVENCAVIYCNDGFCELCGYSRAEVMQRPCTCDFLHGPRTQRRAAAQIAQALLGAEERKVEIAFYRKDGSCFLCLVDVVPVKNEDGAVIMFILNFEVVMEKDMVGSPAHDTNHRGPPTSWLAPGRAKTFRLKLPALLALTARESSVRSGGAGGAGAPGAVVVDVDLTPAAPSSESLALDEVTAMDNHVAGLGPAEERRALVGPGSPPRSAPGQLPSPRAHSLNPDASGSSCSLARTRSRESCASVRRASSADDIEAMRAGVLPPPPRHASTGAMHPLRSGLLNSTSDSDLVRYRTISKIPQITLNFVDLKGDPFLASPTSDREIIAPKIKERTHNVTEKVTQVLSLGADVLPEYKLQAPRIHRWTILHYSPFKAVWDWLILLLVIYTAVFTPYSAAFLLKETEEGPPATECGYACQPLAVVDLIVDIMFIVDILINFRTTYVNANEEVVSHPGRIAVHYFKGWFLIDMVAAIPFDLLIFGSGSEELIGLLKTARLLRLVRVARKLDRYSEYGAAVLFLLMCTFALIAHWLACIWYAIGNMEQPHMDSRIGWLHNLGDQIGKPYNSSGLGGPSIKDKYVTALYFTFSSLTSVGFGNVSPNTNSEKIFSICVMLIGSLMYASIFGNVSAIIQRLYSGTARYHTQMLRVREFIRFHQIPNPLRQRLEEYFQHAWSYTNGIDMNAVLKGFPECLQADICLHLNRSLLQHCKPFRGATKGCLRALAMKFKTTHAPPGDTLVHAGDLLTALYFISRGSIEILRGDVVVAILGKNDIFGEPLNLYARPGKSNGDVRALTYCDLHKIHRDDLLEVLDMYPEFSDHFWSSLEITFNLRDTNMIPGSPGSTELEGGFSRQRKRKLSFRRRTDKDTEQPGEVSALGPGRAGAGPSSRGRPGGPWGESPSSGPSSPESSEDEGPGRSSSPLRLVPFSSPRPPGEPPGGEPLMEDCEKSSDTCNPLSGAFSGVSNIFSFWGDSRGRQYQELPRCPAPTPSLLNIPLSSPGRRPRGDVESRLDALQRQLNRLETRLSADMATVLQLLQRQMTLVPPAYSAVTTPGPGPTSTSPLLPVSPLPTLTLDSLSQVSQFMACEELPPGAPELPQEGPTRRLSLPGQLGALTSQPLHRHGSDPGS

[8] = biological target: T1, AR (Homo sapiens, UniProt P10275); details: compared with MDV-3100; cited from earlier work
T1 sequence (P10275 1-920): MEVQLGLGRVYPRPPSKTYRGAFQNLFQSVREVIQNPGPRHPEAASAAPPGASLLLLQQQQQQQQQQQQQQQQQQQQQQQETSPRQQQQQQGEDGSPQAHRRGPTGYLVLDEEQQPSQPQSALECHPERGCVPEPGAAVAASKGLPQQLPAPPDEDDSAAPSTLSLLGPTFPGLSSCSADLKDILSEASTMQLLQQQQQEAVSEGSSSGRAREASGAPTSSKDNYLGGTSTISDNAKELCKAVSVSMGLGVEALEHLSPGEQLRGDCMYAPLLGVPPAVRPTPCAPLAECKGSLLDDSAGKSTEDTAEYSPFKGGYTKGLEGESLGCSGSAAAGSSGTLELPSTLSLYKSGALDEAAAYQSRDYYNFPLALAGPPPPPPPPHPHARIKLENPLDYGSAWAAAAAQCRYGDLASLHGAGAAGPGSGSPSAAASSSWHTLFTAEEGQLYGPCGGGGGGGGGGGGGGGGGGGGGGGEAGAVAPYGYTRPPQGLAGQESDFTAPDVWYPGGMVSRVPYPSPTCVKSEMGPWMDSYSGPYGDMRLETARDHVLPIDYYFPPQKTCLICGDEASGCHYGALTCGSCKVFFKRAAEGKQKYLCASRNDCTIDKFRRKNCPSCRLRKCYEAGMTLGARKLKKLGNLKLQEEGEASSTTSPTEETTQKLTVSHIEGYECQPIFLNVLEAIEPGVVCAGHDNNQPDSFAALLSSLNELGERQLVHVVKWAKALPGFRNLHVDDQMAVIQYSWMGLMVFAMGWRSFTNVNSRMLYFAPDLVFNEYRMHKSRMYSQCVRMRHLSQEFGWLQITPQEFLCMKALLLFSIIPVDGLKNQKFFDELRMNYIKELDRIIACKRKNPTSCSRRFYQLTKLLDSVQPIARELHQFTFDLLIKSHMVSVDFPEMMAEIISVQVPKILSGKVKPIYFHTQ

[9] = rat; cited from earlier work
[10] = mouse, in vivo; cited from earlier work
[11] = biological target: T1, AR; details: cited from earlier work
[12] = dog; cited from earlier work
[13] = system: five major subtypes of CYP450; details: cited from earlier work

Question: Which DSC peak ([1]; after grinding treatment for 10 minutes) does the source give for `CC1(C)C(=O)N(c2ccc(C#N)c(C(F)(F)F)c2)C(=S)N1c1ccc(OC[C@@H](O)CO)cc1` [Crystal form I, (S)-4-(3-(4-(2,3-dihydroxypropoxy)phenyl)-4,4-dimethyl-5-carbonyl-2-thioimidazolin-1-yl)-2-(trifluoromethyl)benzonitrile] here?
Answer: 158.26 °C

Question: What about the DSC peak ([1]; after heating treatment for 3 hours at 80° C.) of the same molecule?
Answer: 158.17 °C

Question: And the DSC peak ([1]; after pressing treatment)?
Answer: 158.33 °C

Question: And the “purity as detected by HPLC” value ([2]; 40° C., day 0)?
Answer: 99.93%

Question: What about the “purity as detected by HPLC” value ([2]; 40° C., day 5) of the same molecule?
Answer: 99.91%

Question: What about the “purity as detected by HPLC” value ([2]; 40° C., day 10) of the same molecule?
Answer: 99.91%

Question: And the “purity as detected by HPLC” value ([2]; 60° C., day 0)?
Answer: 99.93%

Question: And the “purity as detected by HPLC” value ([2]; 60° C., day 5)?
Answer: 99.92%

Question: What about the “purity as detected by HPLC” value ([2]; 60° C., day 10) of the same molecule?
Answer: 99.90%

Question: What about the “purity as detected by HPLC” value ([2]; Lighting (4500 Lux), day 0) of the same molecule?
Answer: 99.93%

Question: And the “purity as detected by HPLC” value ([2]; Lighting (4500 Lux), day 5)?
Answer: 99.91%

Question: And the “purity as detected by HPLC” value ([2]; Lighting (4500 Lux), day 10)?
Answer: 99.91%

Question: And the “purity as detected by HPLC” value ([2]; RH 75%, day 0)?
Answer: 99.93%

Question: And the “purity as detected by HPLC” value ([2]; RH 75%, day 5)?
Answer: 99.89%

Question: And the “purity as detected by HPLC” value ([2]; RH 75%, day 10)?
Answer: 99.91%

Question: What about the “purity as detected by HPLC” value ([2]; RH 90%, day 0) of the same molecule?
Answer: 99.93%

Question: And the “purity as detected by HPLC” value ([2]; RH 90%, day 5)?
Answer: 99.92%

Question: And the “purity as detected by HPLC” value ([2]; RH 90%, day 10)?
Answer: 99.92%

Question: And the Crystal form ([3]; 0 month)?
Answer: Crystal form I

Question: And the Purity ([3]; 0 month)?
Answer: 99.93%

Question: And the Crystal form ([3]; 6 months)?
Answer: Crystal form I

Question: What about the Purity ([3]; 6 months) of the same molecule?
Answer: 99.93%

Question: What about the Purity ([3]; 12 months) of the same molecule?
Answer: 99.93%

Question: And the Purity ([3]; 24 months)?
Answer: 99.93%

Question: And the Crystal form ([3]; 36 months)?
Answer: Crystal form I

Question: What about the Purity ([3]; 36 months) of the same molecule?
Answer: 99.94%

Question: And the long-term storage stability ([3]; 36 months)?
Answer: stable after placing under such conditions for 36 months

Question: And the “relative stability of crystal forms” value [4]?
Answer: more stable

Question: With `CNC(=O)c1ccc(N2C(=S)N(c3ccc(C#N)c(C(F)(F)F)c3)C(=O)C2(C)C)cc1F` [MDV-3100] as the molecule, how does the “inhibition of growth of AIPC” value [5] read?
Answer: can inhibit the growth of AIPC

Question: What about the “inhibition of growth of AIPC” value [6] of the same molecule?
Answer: can inhibit the growth of AIPC

Question: With `CC1(C)C(=O)N(c2ccc(C#N)c(C(F)(F)F)c2)C(=S)N1c1ccc(OC[C@@H](O)CO)cc1` [compound of formula (I), (S)-4-(3-(4-(2,3-dihydroxypropoxy)phenyl)-4,4-methyl-5-carbonyl-2-thioimidazolin-1-yl)-2-(trifluoromethyl)benzonitrile] as the molecule, how does the IC50 [7] read?
Answer: 24.8 µM

Question: And the activity in vitro [8]?
Answer: slightly better than that of MDV-3100

Question: And the in vivo exposure [9]?
Answer: comparable to that of MDV-3100

Question: And the “ratio of drug concentration in brain tissue to drug concentration in plasma” value [10]?
Answer: much lower than that of MDV-3100

Question: What about the AR agonist activity ([11]; at 3 μM) of the same molecule?
Answer: no AR agonist activity

Question: What about the AR agonist activity ([11]; at 10 μM) of the same molecule?
Answer: no AR agonist activity

Question: What about the in vivo exposure [12] of the same molecule?
Answer: more than six times that of MDV-3100

Question: And the IC50 [13]?
Answer: > 50 µM

Question: Which crystal form transformation ([4]; pulped with crystal form I in ethyl acetate-isopropyl ether (v:v=1:1) at room temperature) does the source give for `CC1(C)C(=O)N(c2ccc(C#N)c(C(F)(F)F)c2)C(=S)N1c1ccc(OC[C@@H](O)CO)cc1` [crystal form III] here?
Answer: can be transformed into crystal form I
